ChEMBL document CHEMBL3132828, “In vitro anticancer activity and SAR studies of triazolyl aminoacyl(peptidyl) penicillins” (Medchemcomm, 2014)

Legend:
[1] = Cytotoxicity against mouse NMuMG cells assessed as hexosaminidase level after 72 hrs by colorimetric analysis; assay type: cell-based
HeLa [2] = assay: Cytotoxicity against human HeLa cells assessed as hexosaminidase level after 72 hrs by colorimetric analysis; assay type: functional, cell-based
[3] = Selectivity ratio of IC50 for mouse NMuMG cells to IC50 for human HeLa cells; assay type: ADME, cell-based; details: NMuMG cells and HeLa cells, read-out: Ratio IC50
[4] = Selectivity ratio of IC50 for mouse NMuMG cells to IC50 for mouse B16F0 cells; assay type: ADME, cell-based; details: NMuMG cells and B16F0 cells, read-out: Ratio IC50
[5] = Cytotoxicity against mouse B16F0 cells assessed as hexosaminidase level after 72 hrs by colorimetric analysis; assay type: functional, cell-based; details: B16F0, 72 h
HeLa [6] = assay: Cytotoxicity against human HeLa cells assessed as growth inhibition at 20 uM after 72 hrs by colorimetric analysis relative to control; assay type: functional; details: read-out: GI

SMILES	IC50 [1] [µM]	IC50 (HeLa [2]) [µM]	selectivity ratio [3]	selectivity ratio [4]	IC50 [5] [µM]	inhibition of growth at 20 µM (HeLa [6]) [%]
COC(=O)[C@H](Cc1ccccc1)NC(=O)[C@@H](NC(=O)c1cn(C[C@@H]2N3C(=O)C(Br)(Br)[C@H]3SC2(C)C)nn1)C(C)C	170	16	10.6	19	9	–
COC(=O)[C@H](Cc1ccccc1)NC(=O)c1cn(C[C@@H]2N3C(=O)C(Br)(Br)[C@H]3SC2(C)C)nn1	125	14	9	12.5	10	–
COC(=O)[C@H](Cc1ccc(O)cc1)NC(=O)[C@H](CC(C)C)NC(=O)c1cn(C[C@@H]2N3C(=O)C(Br)(Br)[C@H]3SC2(C)C)nn1	> 160	–	–	> 7	22	< 50
COC(=O)[C@H](Cc1ccccc1)NC(=O)[C@H](CC(C)C)NC(=O)c1cn(C[C@@H]2N3C(=O)C(Br)(Br)[C@H]3S(=O)(=O)C2(C)C)nn1	7	2	3.5	3.5	2	–
CC[C@H](C)[C@H](NC(=O)c1cn(C[C@@H]2N3C(=O)C(Br)(Br)[C@H]3SC2(C)C)nn1)C(=O)N[C@@H](Cc1ccccc1)C(=O)OC	83	15	5.5	9	9	–
COC(=O)[C@H](Cc1ccccc1)NC(=O)[C@H](CC(C)C)NC(=O)c1cn(C[C@@H]2N3C(=O)C(Br)(Br)[C@H]3SC2(C)C)nn1	102	3	34	34	3	–
COC(=O)[C@H](Cc1ccccc1)NC(=O)[C@@H]1CCCN1C(=O)c1cn(C[C@@H]2N3C(=O)C(Br)(Br)[C@H]3SC2(C)C)nn1	55	17	3	5	11	–
COC(=O)[C@H](Cc1ccccc1)NC(=O)[C@H](CCSC)NC(=O)c1cn(C[C@@H]2N3C(=O)C(Br)(Br)[C@H]3SC2(C)C)nn1	275	10	27.5	30.5	9	–
COC(=O)[C@H](Cc1ccccc1)NC(=O)[C@H](CC(C)C)NC(=O)c1cn(C[C@@H]2N3C(=O)C[C@H]3SC2(C)C)nn1	355	13	27	35.5	10	–
COC(=O)[C@H](CC(C)C)NC(=O)[C@H](CC(C)C)NC(=O)c1cn(C[C@@H]2N3C(=O)C(Br)(Br)[C@H]3SC2(C)C)nn1	88	9	10	22	4	–
CC[C@H](C)[C@H](NC(=O)c1cn(C[C@@H]2N3C(=O)C(Br)(Br)[C@H]3SC2(C)C)nn1)C(=O)N[C@@H](Cc1ccc(O)cc1)C(=O)OC	95	–	–	5	20	< 50
